Laboratory results published in US20230192661A1, “1, 4, 5, 6-TETRAHYDROPYRIMIDINE-2-AMINE DERIVATIVE” (UBE Corporation, priority 2020, published 2023).

Assays:
[1] = biological target: T1, αvβ1 (UniProt G3HZ55+P06756); test: αvβ1 cell adhesion inhibition test (αv-transfected CHO cells on human fibronectin); assay type: cell-based; settings: human fibronectin coating, 1 mM MnCl2, 1 hour, read-out: IC50 (rate of inhibition of cell adhesion, αvβ1)
T1 construct: expressed in transfected cells; host or cells: CHO cells deficient in α5 gene, transfected with αv gene
T1 sequence (P06756 31-889 limits assumed): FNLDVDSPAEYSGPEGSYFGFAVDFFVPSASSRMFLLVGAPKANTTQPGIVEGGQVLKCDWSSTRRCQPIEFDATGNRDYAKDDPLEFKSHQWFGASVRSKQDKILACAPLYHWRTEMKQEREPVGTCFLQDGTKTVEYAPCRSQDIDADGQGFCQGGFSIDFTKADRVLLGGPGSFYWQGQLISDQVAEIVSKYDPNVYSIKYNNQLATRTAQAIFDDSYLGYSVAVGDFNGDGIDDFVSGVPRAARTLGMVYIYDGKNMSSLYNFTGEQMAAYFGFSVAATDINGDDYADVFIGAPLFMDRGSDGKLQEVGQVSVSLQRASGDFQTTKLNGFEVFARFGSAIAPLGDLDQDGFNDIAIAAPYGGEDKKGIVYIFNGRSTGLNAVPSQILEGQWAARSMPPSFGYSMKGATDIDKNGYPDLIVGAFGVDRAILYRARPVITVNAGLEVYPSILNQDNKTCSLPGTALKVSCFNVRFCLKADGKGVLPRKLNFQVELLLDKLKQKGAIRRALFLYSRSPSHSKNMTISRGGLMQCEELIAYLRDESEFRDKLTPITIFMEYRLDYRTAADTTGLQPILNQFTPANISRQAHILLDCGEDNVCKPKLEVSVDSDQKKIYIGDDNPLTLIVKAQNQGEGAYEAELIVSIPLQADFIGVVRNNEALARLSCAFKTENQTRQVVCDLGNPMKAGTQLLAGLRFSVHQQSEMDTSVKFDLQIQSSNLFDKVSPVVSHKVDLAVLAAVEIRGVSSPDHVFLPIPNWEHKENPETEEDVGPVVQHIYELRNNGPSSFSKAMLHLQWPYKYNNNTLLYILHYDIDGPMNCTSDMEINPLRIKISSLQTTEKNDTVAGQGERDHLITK
T1 sequence (P06756 891-1048 limits assumed): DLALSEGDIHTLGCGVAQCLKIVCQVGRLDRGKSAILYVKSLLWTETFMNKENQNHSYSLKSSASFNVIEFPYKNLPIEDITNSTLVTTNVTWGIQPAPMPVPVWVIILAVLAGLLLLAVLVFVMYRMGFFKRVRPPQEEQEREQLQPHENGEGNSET
T1 sequence (G3HZ55 21-798): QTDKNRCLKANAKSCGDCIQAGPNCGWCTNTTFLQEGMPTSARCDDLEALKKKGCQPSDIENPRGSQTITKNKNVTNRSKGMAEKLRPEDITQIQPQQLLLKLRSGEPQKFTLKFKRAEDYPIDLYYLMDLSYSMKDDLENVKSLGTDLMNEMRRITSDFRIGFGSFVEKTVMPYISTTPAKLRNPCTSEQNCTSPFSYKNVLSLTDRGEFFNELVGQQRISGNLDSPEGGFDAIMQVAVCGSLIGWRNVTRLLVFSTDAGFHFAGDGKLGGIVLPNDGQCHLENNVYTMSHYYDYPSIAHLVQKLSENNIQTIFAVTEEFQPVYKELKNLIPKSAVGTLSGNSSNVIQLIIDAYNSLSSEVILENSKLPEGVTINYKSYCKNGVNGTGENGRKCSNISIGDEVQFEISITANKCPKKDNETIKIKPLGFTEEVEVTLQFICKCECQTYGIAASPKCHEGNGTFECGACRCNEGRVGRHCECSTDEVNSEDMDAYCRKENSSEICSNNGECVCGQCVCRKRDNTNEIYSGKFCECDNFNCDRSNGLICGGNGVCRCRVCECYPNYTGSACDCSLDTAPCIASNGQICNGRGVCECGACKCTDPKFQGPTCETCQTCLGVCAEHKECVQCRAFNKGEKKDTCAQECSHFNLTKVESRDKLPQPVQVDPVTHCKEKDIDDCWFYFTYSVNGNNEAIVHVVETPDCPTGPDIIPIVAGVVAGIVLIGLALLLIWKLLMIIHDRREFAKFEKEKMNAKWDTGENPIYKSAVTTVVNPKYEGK
In short: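 α5-deficient CHO cells expressing αv, at 1×10^6 cells/mL in DMEM with 1 mM MnCl2 plus test compound, allowed to adhere 1 h at 37° C to human fibronectin (coated at 1.25 μg/mL). Adherent cells read by crystal violet absorbance, normalized to uncoated (100%) and DMSO (0%) wells. IC50 reported as banded classes.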

[2] = tested on: Human hepatic stellate cells; test: Active human hepatic stellate cell dedifferentiation test (decrease in ACTA2 mRNA expression); assay type: cell-based; settings: 3 days differentiation then 2 days with compound, read-out: IC50 (rate of decrease in ACTA2 mRNA expression)
In short: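 Human hepatic stellate cells differentiated 3 days in DMEM/10% FBS, then exposed to compound for 2 days (0.1% DMSO final) at 37° C. ACTA2 mRNA measured by RT-qPCR, normalized to GAPDH (comparative Ct). Decrease scaled between DMSO (100%) and start-of-differentiation cells (0%); IC50 derived from it.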

| SMILES | IC50 [1] [nM] | IC50 [2] [nM] |
| --- | --- | --- |
| O=C(O)C[C@H](NC(=O)CNC(=O)c1cc(NC2=NCC(F)CN2)c2cn[nH]c2c1)c1cccc(OC2CC2)c1 (stereo partly drawn) [Example 40-(b), (3S)-3-(3-cyclopropoxyphenyl)-3-(2-(4-((5-fluoro-1,4,5,6-tetrahydropyrimidin-2-yl)amino)-1H-indazole-6-carboxamido)acetamido)propanoic acid] | < 3 | 10 to 50 |
| O=C(O)C[C@H](NC(=O)CNC(=O)c1cc(NC2=NCC(F)CN2)c2cn[nH]c2c1)c1cccc(Cl)c1 (stereo partly drawn) [Example 41-(b), (3S)-3-(3-chlorophenyl)-3-(2-(4-((5-fluoro-1,4,5,6-tetrahydropyrimidin-2-yl)amino)-1H-indazole-6-carboxamido)acetamido)propanoic acid] | 3 to 10 | 10 to 50 |
| O=C(O)C[C@H](NC(=O)CNC(=O)c1cc(NC2=NCC(F)CN2)c2cn[nH]c2c1)c1cccc(Br)c1 (stereo partly drawn) [Example 42-(b), (3S)-3-(3-bromophenyl)-3-(2-(4-((5-fluoro-1,4,5,6-tetrahydropyrimidin-2-yl)amino)-1H-indazole-6-carboxamido)acetamido)propanoic acid] | 3 to 10 | 10 to 50 |
| O=C(O)C[C@H](NC(=O)CNC(=O)c1cc(NC2=NCC(F)CN2)c2cn[nH]c2c1)c1cccc(-n2cccn2)c1 (stereo partly drawn) [Example 43-(b), (3S)-3-(3-(1H-pyrazol-1-yl)phenyl)-3-(2-(4-((5-fluoro-1,4,5,6-tetrahydropyrimidin-2-yl)amino)-1H-indazole-6-carboxamido)acetamido)propanoic acid] | 3 to 10 | 10 to 50 |
| O=C(O)C[C@H](NC(=O)CNC(=O)c1cc(NC2=NCC(F)CN2)c2c(F)n[nH]c2c1)c1cc(Cl)cc(C(F)(F)F)c1 (stereo partly drawn) [Example 48-(b), (3S)-3-(3-chloro-5-(trifluoromethyl)phenyl)-3-(2-(3-fluoro-4-((5-fluoro-1,4,5,6-tetrahydropyrimidin-2-yl)amino)-1H-indazole-6-carboxamido)acetamido) propanoic acid] | 3 to 10 | < 10 |
| O=C(O)C[C@H](NC(=O)CNC(=O)c1cc(NC2=NCC(F)CN2)c2c(Cl)n[nH]c2c1)c1cc(Cl)cc(C(F)(F)F)c1 (stereo partly drawn) [Example 49-(b), (3S)-3-(2-(3-chloro-4-((5-fluoro-1,4,5,6-tetrahydropyrimidin-2-yl)amino)-1H-indazole-6-carboxamido)acetamido)-3-(3-chloro-5-(trifluoromethyl)phenyl)propanoic acid] | < 3 | < 10 |
| O=C(O)C[C@H](NC(=O)CNC(=O)c1cc(NC2=NCC(F)CN2)cc2[nH]ncc12)c1cc(Cl)cc(C(F)(F)F)c1 (stereo partly drawn) [Example 52-(b), (3S)-3-(3-chloro-5-(trifluoromethyl)phenyl)-3-(2-(6-((5-fluoro-1,4,5,6-tetrahydropyrimidin-2-yl)amino)-1H-indazole-4-carboxamido)acetamido)propanoic acid] | < 3 | 10 to 50 |
| O=C(O)C[C@H](NC(=O)CNC(=O)c1cc(NC2=NCC(F)CN2)cc2[nH]ncc12)c1cc(Br)cc(C(F)(F)F)c1 (stereo partly drawn) [Example 53-(b), (3S)-3-(3-bromo-5-(trifluoromethyl)phenyl)-3-(2-(6-((5-fluoro-1,4,5,6-tetrahydropyrimidin-2-yl)amino)-1H-indazole-4-carboxamido)acetamido)propanoic acid] | < 3 | 10 to 50 |
| O=C(O)C[C@H](NC(=O)CNC(=O)c1cc(NC2=NCC(F)CN2)cc2[nH]ncc12)c1cc(I)cc(C(F)(F)F)c1 (stereo partly drawn) [Example 54-(b), (3S)-3-(2-(6-((5-fluoro-1,4,5,6-tetrahydropyrimidin-2-yl)amino)-1H-indazole-4-carboxamido)acetamido)-3-(3-iodo-5-(trifluoromethyl)phenyl)propanoic acid] | < 3 | 10 to 50 |
| O=C(O)C[C@H](NC(=O)CNC(=O)c1cc(NC2=NCC(F)CN2)cc2[nH]ncc12)c1ccc(F)c(C(F)(F)F)c1 (stereo partly drawn) [Example 55-(b), (3S)-3-(2-(6-((5-fluoro-1,4,5,6-tetrahydropyrimidin-2-yl)amino)-1H-indazole-4-carboxamido)acetamido)-3-(4-fluoro-3-(trifluoromethyl)phenyl)propanoic acid] | < 3 | < 10 |
| O=C(O)C[C@H](NC(=O)CNC(=O)c1cc(NC2=NCC(F)CN2)cc2[nH]ncc12)c1cccc(C(F)(F)F)c1 (stereo partly drawn) [Example 56-(b), (3S)-3-(2-(6-((5-fluoro-1,4,5,6-tetrahydropyrimidin-2-yl)amino)-1H-indazole-4-carboxamido)acetamido)-3-(3-(trifluoromethyl)phenyl)propanoic acid] | 3 to 10 | < 10 |
